Source: article PMC12508156, “Non-canonical dihydrolipoyl transacetylase promotes chemotherapy resistance via mitochondrial tetrahydrofolate signaling” (Nature Communications, 2025)
Several values for one entry are separate records, joined by “and”; a condition that tells them apart may be missing. Equal values may be shown once.

What was measured:
A549cisR cells = assay: Apoptotic cell death (annexin V/PI staining); assay type: cell-based, human; conditions: cisplatin 2 μg/ml, 48 h, n=1-4: biological replicates, listed as cis
[1] = tested on: KB-3-1cisR xenograft tumors; assay: IHC of KB-3-1cisR xenograft tumors (Ac-K44 MTHFD2, MT-CO2, DLAT, Ki-67); assay type: in vivo, athymic nu/nu mice; design: key: IHC intensity score 0 to 3+; conditions: KB-3-1cisR xenograft tumors (Figure 8J)
Excerpt: Formalin-fixed and paraffin-embedded tumor tissue specimens from HNSCC and NSCLC patients were obtained from the […] Cancer Tissue and Pathology Shared Resources. The Institutional Review Board (IRB) of Emory University approved using human specimens (IRB00003208 - HNSCC, IRB00098377 - NSCLC). Clinical samples were collected with informed consent according to the Health Insurance Portability and Accountability Act. Patients' clinical information was obtained through the […] Technology Applications Shared Resource. Tumors from HNSCC or NSCLC patients who received chemotherapy-containing regimens were used. Immunohistochemistry (IHC) staining of DLAT, acetyl-[…] MTHFD2, MT-CO2, and Ki-67 was performed based on the established protocol. Antigen retrieval was conducted in Tris-EDTA (pH 9.0) for acetyl-[…] MTHFD2 and MT-CO2 and sodium citrate (pH 6.0) for the remaining antigens. […] Assessment of positive DLAT, MT-CO2, and acetyl-[…] MTHFD2 staining intensity within tumor cells was performed using a scoring system ranging from 0 to 3+ based on IHC signal intensity. Mice were subcutaneously injected into the flank with 1 × 10^6 KB-3-1^cisR cells with or without DLAT knockdown. […] Tumors were collected at the experimental endpoint, and tumor proliferation was assessed using Ki-67 IHC staining. The localization, penetration, and efficacy of DMp39 were monitored by assessing the acetyl-[…] levels in tumors and fluorescence imaging analysis using an IVIS imaging system. Drug-induced organ toxicities, including splenomegaly, liver damage, and kidney injury, were monitored by assessing spleen index, alanine transaminase activity, and cystatin C levels in plasma.

For `N.N.[Cl][Pt][Cl]` [cisplatin], the Apoptotic death (A549cisR cells; A549cisR pLKO.1+pLHCX) was 7.05 and 8.53 and 8.99 and 9.51, the Apoptotic death (A549cisR cells; A549cisR shDLAT+DLAT(WT) rescue) was 7.31 and 8.35 and 8.93 and 10.11 and the “Ac-K44 (IHC score)” value ([1]; n=1) was 2. The “DLAT (IHC score)” value ([1]; n=1) was 2, the “MT-CO2 (IHC score)” value ([1]; n=1) was 3 and the “Ac-K44 (IHC score)” value ([1]; n=2) was 3. The “DLAT (IHC score)” value ([1]; n=2) was 3, the “MT-CO2 (IHC score)” value ([1]; n=2) was 3 and the “Ac-K44 (IHC score)” value ([1]; n=3) was 2. For the same compound, the “DLAT (IHC score)” value ([1]; n=3) was 2, the “MT-CO2 (IHC score)” value ([1]; n=3) was 3 and the “Ac-K44 (IHC score)” value ([1]; n=4) was 2. The “DLAT (IHC score)” value ([1]; n=4) was 3, the “MT-CO2 (IHC score)” value ([1]; n=4) was 3 and the “Ac-K44 (IHC score)” value ([1]; n=5) was 2. For the same compound, the “DLAT (IHC score)” value ([1]; n=5) was 3, the “MT-CO2 (IHC score)” value ([1]; n=5) was 1 and the “Ac-K44 (IHC score)” value ([1]; n=6) was 2. The “DLAT (IHC score)” value ([1]; n=6) was 2 and the “MT-CO2 (IHC score)” value ([1]; n=6) was 3.
